{"source": "patent US20240285630A1", "about": "“Methods and compositions for improving exercise performance” (MEZZION PHARMA CO., LTD., priority 2021, published 2024)", "key": {"[1]": {"tested_on": "adolescents with Fontan physiology", "assay": "FUEL Trial serum brain-type natriuretic peptide (BNP) level", "assay_type": "in vivo, human", "details": "ANCOVA; listed as udenafil"}, "[2]": {"tested_on": "adolescents with Fontan physiology", "assay": "FUEL Trial cardiopulmonary exercise test (CPET), cycle ergometer ramp protocol", "assay_type": "in vivo, human", "details": "for Change in VE/VCO2 at VAT: 26 week - baseline; for Peak VO2 (% change), difference in change (treatment - placebo): natural log transformed data", "text": "The primary outcome was the change in oxygen consumption at peak exercise (max or peak VO2) from baseline to the 26-week visit. Secondary exercise outcomes included change in additional measures at maximal exertion, as well as change in measures of submaximal exercise at the ventilatory anaerobic threshold (VAT). The primary outcome for clinical secondary aims included change in myocardial performance index (MPI), an echocardiographically-derived measure of systolic and diastolic ventricular function, change in log-transformed reactive hyperemia index (InRHI), a PAT-derived measure of peripheral vascular function, and change in log-transformed serum BNP level. Safety was monitored through adverse event reports, which were collected according to a pre-specified protocol of study coordinator outreach, and through ad hoc patient and family communication with members of the study team at each site.\nBaseline clinical testing completed before drug initiation included a blood draw to measure brain-type natriuretic peptide (BNP) level, a cardiopulmonary exercise test (CPET) using a standardized cycle ergometer ramp protocol, a standardized echocardiogram, and an assessment of peripheral vascular function using peripheral arterial tonometry (PAT) measured by finger cuff (EndoPAT; Itamar Medical, Israel). Participants who achieved maximal effort, defined as respiratory exchange ratio (RER)≥1.10 at peak exercise during CPET, were eligible for randomization and study drug initiation. […] End-of-study clinical testing included repeat measurement of serum BNP, CPET, echocardiogram, and PAT.\nThe primary analysis used the intention-to-treat population to evaluate the difference in the change in the primary outcome between treatment arms. This difference was assessed with an analysis of covariance (ANCOVA) with fixed factors for ventricular morphology (single left versus single right or mixed) and treatment group, with a continuous covariate of baseline max VO2. […] Secondary analyses included participants who successfully completed the protocol with measurable values at each of the secondary endpoints. Secondary outcomes of continuous data points were analyzed in the manner described for the primary outcome. In order to assess the generalizability of findings at the ventilatory anaerobic threshold, demographic and clinical characteristics were compared between participants without paired VO2 at VAT data and those comprising the remainder of the cohort.\nThe FUEL Trial was a Phase III clinical trial conducted at 30 centers. […] The primary outcome was the between group difference in change in oxygen consumption at peak exercise. Secondary outcomes included between group differences in changes in sub-maximal exercise at the ventilatory anaerobic threshold (VAT), the myocardial performance index (MPI), the natural log of the reactive hyperemia index (InRHI), and serum brain-type natriuretic peptide (BNP).\nBaseline clinical testing completed before drug initiation included a blood draw to measure brain-type natriuretic peptide (BNP) level, a cardiopulmonary exercise test (CPET) using a standardized cycle ergometer ramp protocol (previously described in children and adolescents with Fontan physiology, Sleeper L A, Anderson P, Hsu D T, Mahony L, McCrindle B W, Roth S J, Saul J P, Williams R V, Geva T, Colan S D, Clark B J and Pediatric Heart Network I. Design of a large cross-sectional study to facilitate future clinical trials in children with the Fontan palliation. Am Heart J. 152(3):427-433 (September 2006), a standardized echocardiogram, and an assessment of peripheral vascular function using peripheral arterial tonometry (PAT) measured by finger cuff (EndoPAT; Itamar Medical, Israel). Participants who achieved maximal effort, defined as respiratory exchange ratio (RER)>1.10 at peak exercise during CPET, were eligible for randomization and study drug initiation. […]"}, "[3]": {"tested_on": "adolescents with Fontan physiology", "details": "cited from earlier work"}, "[4]": {"tested_on": "Fontan population", "assay": "FUEL OLE (open-label extension) trial", "assay_type": "in vivo, human", "details": "those treated with udenafil in the FUEL trial; 26 to 78 weeks", "text": "Like most extension studies, the FUEL open label extension trial was not a placebo-controlled trial, but was instead designed to establish a safety profile over a longer duration of drug exposure—and is an independent source of data from FUEL."}, "[5]": {"details": "baseline peak VO2 <80% predicted, N=251"}, "[6]": {"details": "baseline peak VO2 <80% predicted, N=301"}, "[7]": {"details": "baseline peak VO2 ≥80% predicted, N=66"}, "[8]": {"details": "excluding those with baseline peak VO2 ≥80% predicted, n=122"}, "[9]": {"details": "excluding those with baseline peak VO2 ≥80% predicted, n=150"}, "[10]": {"details": "post-hoc subgroup excluding baseline peak VO2 ≥80% of predicted"}, "[11]": {"details": "subgroup with baseline peak VO2 ≥80% of predicted, each treatment group"}}, "note": "Where “and” joins values, the source holds several entries; their conditions need not be identical. Equal values may be shown once.", "data": [{"smiles": "CCCOc1ccc(S(=O)(=O)NCCC2CCCN2C)cc1-c1nc2c(CCC)nn(C)c2c(=O)[nH]1", "note": "(stereo not shown) [Udenafil, udenafil]", "values": [{"measurement": "Log brain natriuretic peptide, difference LS Mean (SE), udenafil vs placebo", "setting": "[1]", "value": "not different between groups"}, {"measurement": "Increase in peak VO2 (VO2 max), percent", "setting": "[2]; 87.5 mg twice daily, baseline to 26-week, ITT", "value": 2.8, "unit": "%"}, {"measurement": "Increase in peak VO2 (VO2 max), unindexed", "setting": "[2]; 87.5 mg twice daily, baseline to 26-week, ITT n=200, p=0.071 vs placebo", "value": "44 mL/min and 44 ± 245 mL/min"}, {"measurement": "Anaerobic threshold oxygen consumption indexed to weight, 26-week", "setting": "[2]; 26-week value, mean ± SD, n=185", "value": "18.20 ± 4.51 (185) mL/kg/min"}, {"measurement": "Peak exercise oxygen consumption indexed to weight, 26-week", "setting": "[2]; 26-week value, mean ± SD, n=200", "value": "27.61 ± 6.87 (200) mL/kg/min"}, {"measurement": "Number needed to treat (NNT) for an increase in peak VO2", "setting": "[2]; ITT analysis", "value": 10}, {"measurement": "Patients with an increase in peak VO2, number", "setting": "[2]; ITT analysis without imputation of missing data", "value": 86}, {"measurement": "Patients with an increase in peak VO2, percent", "setting": "[2]; ITT analysis without imputation of missing data, p=0.075 vs placebo", "value": 46, "unit": "%"}, {"measurement": "Peak VO2 indexed to weight, change 26 week - baseline", "setting": "[2]; all participants (ITT) n=200, p=0.092 vs placebo", "value": "−0.23 ± 4.06 (200) mL/kg/min and −0.23 mL/kg/min"}, {"measurement": "VO2 at VAT indexed to weight, change 26 week - baseline", "setting": "[2]; all participants n=170, p=0.012 vs placebo", "value": "−0.07 ± 3.0 (170) mL/kg/min and −0.07 mL/kg/min"}, {"measurement": "% Predicted Peak VO2, 26 week - baseline", "setting": "[2]; all participants n=189", "value": "−0.90"}, {"measurement": "Peak VO2 (% change, ml/kg/min), 26 week - baseline", "setting": "[2]; all participants n=200", "value": "−1.0", "unit": "%"}, {"measurement": "Change in VE/VCO2 at VAT", "setting": "[2]; all participants", "value": "−0.76"}, {"measurement": "Change in VE/VCO2 at VAT", "setting": "[2]; all participants, listed as udenafil", "value": "−0.8"}, {"measurement": "Change in work rate at VAT", "setting": "[2]; all participants, baseline to 26-week", "value": 3.46, "unit": "Watts"}, {"measurement": "Work at VAT, difference in change (treatment - placebo)", "setting": "[2]; baseline peak VO2 <80% predicted, N=243", "value": 3.54, "unit": "watts"}, {"measurement": "VE/VCO2 at VAT, difference in change (treatment - placebo)", "setting": "[2]; [5]", "value": "−0.66"}, {"measurement": "VO2 at VAT, difference in change (treatment - placebo)", "setting": "[2]; [5]", "value": 0.77, "unit": "mL/min/kg"}, {"measurement": "Peak VO2, difference in change (treatment group - placebo group)", "setting": "[2]; [6]", "value": 1.12, "unit": "mL/min/kg"}, {"measurement": "Peak VO2 (% change), difference in change (treatment - placebo)", "setting": "[2]; [6]", "value": 5.0, "unit": "%"}, {"measurement": "Peak VO2, difference in change (treatment group - placebo group)", "setting": "[2]; baseline peak VO2 ≥80% predicted (Super Fontan), N=77", "value": -0.89, "unit": "mL/min/kg"}, {"measurement": "Peak VO2, difference in change (treatment group - placebo group)", "setting": "[2]; baseline peak VO2 ≥80% predicted (Super Fontan), N=77, listed as udenafil", "value": "no significant udenafil treatment effect"}, {"measurement": "VE/VCO2 at VAT, difference in change (treatment - placebo)", "setting": "[2]; [7]", "value": "−1.18"}, {"measurement": "VO2 at VAT, difference in change (treatment - placebo)", "setting": "[2]; [7]", "value": 0.38, "unit": "mL/min/kg"}, {"measurement": "Work at VAT, difference in change (treatment - placebo)", "setting": "[2]; [7]", "value": 3.15, "unit": "watts"}, {"measurement": "Peak VO2 (% change), difference in change (treatment - placebo)", "setting": "[2]; baseline peak VO2 ≥80% predicted, N=77", "value": "−2.39", "unit": "%"}, {"measurement": "Decrease in VE/VCO2 at VAT, percent", "setting": "[2]; baseline to 26-week", "value": 2.1, "unit": "%"}, {"measurement": "Improvement in work rate at VAT, percent", "setting": "[2]; baseline to 26-week", "value": "5.5% and 5.2%"}, {"measurement": "Decrease in VE/VCO2 at VAT (improved ventilatory efficiency)", "setting": "[2]; baseline to 26-week, given as size of decrease", "value": 0.8}, {"measurement": "Peak exercise heart rate, change", "setting": "[2]; baseline to 26-week, mean ± SD", "value": "−1.4 ± 11", "unit": "bpm"}, {"measurement": "Peak exercise minute ventilation, change", "setting": "[2]; baseline to 26-week, mean ± SD", "value": "1.2 ± 14", "unit": "L/min"}, {"measurement": "Peak exercise oxygen saturation, change", "setting": "[2]; baseline to 26-week, mean ± SD", "value": "0.4 ± 3.4", "unit": "%"}, {"measurement": "Peak exercise respiratory rate, change", "setting": "[2]; baseline to 26-week, mean ± SD", "value": "−1.1 ± 10", "unit": "breaths/min"}, {"measurement": "Peak exercise minute ventilation, change", "setting": "[2]; baseline to 26-week, mean ± SD, listed as udenafil", "value": "no difference in the change in minute ventilation between groups"}, {"measurement": "Work at VAT, 26 week - baseline", "setting": "[2]; excluding those with baseline peak VO2 ≥80% predicted, n=119", "value": 3.80, "unit": "watts"}, {"measurement": "VE/VCO2 at VAT, 26 week - baseline", "setting": "[2]; [8]", "value": "−0.61"}, {"measurement": "VO2 at VAT, 26 week - baseline", "setting": "[2]; [8]", "value": 0.11, "unit": "mL/min/kg"}, {"measurement": "% Predicted Peak VO2, 26 week - baseline", "setting": "[2]; [9]", "value": 0.43}, {"measurement": "Peak VO2 (% change, ml/kg/min), 26 week - baseline", "setting": "[2]; [9]", "value": 0.4, "unit": "%"}, {"measurement": "Peak VO2, 26 week - baseline", "setting": "[2]; [9]", "value": 0.23, "unit": "mL/min/kg"}, {"measurement": "Number needed to treat (NNT) for an increase in peak VO2", "setting": "[2]; [10]", "value": 8.2}, {"measurement": "Patients with an increase in peak VO2, number", "setting": "[2]; [10]", "value": 75}, {"measurement": "Patients with an increase in peak VO2, percent", "setting": "[2]; post-hoc subgroup excluding baseline peak VO2 ≥80% of predicted, p=0.037 vs placebo", "value": 50, "unit": "%"}, {"measurement": "Patients with negative change in peak VO2, percent", "setting": "[2]; [11]", "value": "71 to 72", "unit": "%"}, {"measurement": "Patients with positive change in peak VO2, percent", "setting": "[2]; [11]", "value": "28 to 29", "unit": "%"}, {"measurement": "Average serum concentration", "setting": "[3]; 87.5 mg twice daily compared with other tested regimens", "value": "highest average serum concentration"}, {"measurement": "Dose limiting adverse events", "setting": "[3]; 87.5 mg twice daily", "value": "not associated with dose limiting adverse events"}, {"measurement": "Tolerability", "setting": "[3]; all tested dosing regimens", "value": "demonstrated tolerability at all tested dosing regimens"}, {"measurement": "Change from baseline in peak or max VO2 over FUEL and FUEL OLE", "setting": "[4]", "value": "persistence of benefit"}]}]}
